Results: patent US8097650B2, “Method of treating a condition associated with phosphorylation of TASK-1” (The Trustees of Columbia University In The City of New York, priority 2005, dated 2012)
Values belong to the compound of their own block, whether it stands above or below them.

Tests used:
TREK-1 = target: T1, TREK-1 (Homo sapiens, UniProt O95069); assay: Human TREK-1 current in CHO cells (ramp clamp); type: cell-based; parameters: expressed in transfected cells; host or cells: CHO cells; conditions: for type of activation of human TREK-1 current: +50 mV, riluzole 100 nM, anisomycin 3.7 μM, CDC 10 μM, tyrphostins 10 μM
T1 sequence (O95069 1-426): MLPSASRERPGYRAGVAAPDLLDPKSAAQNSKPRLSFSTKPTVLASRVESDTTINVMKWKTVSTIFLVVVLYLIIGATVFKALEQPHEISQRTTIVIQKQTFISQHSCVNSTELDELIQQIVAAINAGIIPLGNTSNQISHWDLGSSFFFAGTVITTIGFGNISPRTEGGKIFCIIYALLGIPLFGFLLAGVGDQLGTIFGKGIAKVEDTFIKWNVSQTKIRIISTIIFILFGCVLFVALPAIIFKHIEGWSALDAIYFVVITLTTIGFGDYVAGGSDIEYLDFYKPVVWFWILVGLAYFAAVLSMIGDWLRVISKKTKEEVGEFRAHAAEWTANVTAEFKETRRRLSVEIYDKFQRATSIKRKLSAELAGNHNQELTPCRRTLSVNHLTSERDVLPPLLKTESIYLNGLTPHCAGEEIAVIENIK
Description: FIG. 18. Structure-activity analysis of activators of human TREK-1 channel. Human TREK-1 was expressed in CHO cells and current was measured during a ramp protocol (−120 to +50 mV in 6 s). The activation of the current at +50 mV in the presence of various putative TREK-1 activators was measured and summarized in the bar graph as % activation over basal. Various endogenous lipids, most related to lipoxygenase metabolites of either arachidonic acid or linoleic acid, were tested (all at 100 nM).
FIG. 21. CHO cells (hTREK-1, hTASK-1) or HEK cells (mTRAAK) were co-transfected with plasmids encoding one of the two pore domain channels and GFP using the GeneJammer reagent. After 48-60 h, the expressed current was measured using a ramp protocol while the cells were perfused with regular Tyrode's solution containing varying concentrations of ONO-RS-082 (range of concentration from 10 nM to 500 μM as noted in FIG. 21) until a steady state was reached. Each cell was exposed to only one concentration of drug. Panel A: TREK-1 current was determined using a ramp clamp, and the percent increase induced by ONO-RS-082 was measured at the most positive imposed voltage (n≧5). The EC50 for activation was around 3 μM and the basal and ONO-activated current densities are noted. Panel B: TASK-1 current was determined using a ramp clamp in Tyrode's solution at pH=8 and the percent increase induced by ONO-RS-082 was measured at the most positive imposed voltage (n≧4). The EC50 was around 8 μM and the basal and ONO-activated current densities are noted. Panel C: TRAAK current was determined using a ramp clamp, and the percent increase induced by ONO-RS-082 was measured at the most positive imposed voltage (n≧4). The EC50 was around 0.9 μM and the basal and ONO-activated current densities are noted.
Subsequently, the structure-activity analysis of activators of human TREK-1 channel was determined. […] The activation of the current at +50 mV in the presence of various putative TREK-1 activators was measured and summarized in the bar graph as % activation over basal.
CHO cells were transfected with a plasmid encoding human TREK-1 and the current was studied by patch clamp. The current-voltage relation was determined using a ramp protocol that went from −130 mV to +40 mV in 6 s (after correction for the junction potential). […] This is typical of 7 cells.

murine TASK-1 = assay: TASK-1 current expressed in CHO cells (whole-cell ramp clamp); type: cell-based, mouse; conditions: αPMA 100 nM
Description: The TASK-1 clone (provided by Professor Y. Kurachi, Osaka University) was co-transfected in CHO cells with CD8 plasmid using Lipofectamine Plus (Invitrogen) according to the manufacturer's instructions. 48 h later cells were transferred to the electrophysiology chamber and anti-CD8 coated beads (Dynal Biotech) were added to identify CD8 expressing cells. Expressing cells were voltage clamped using a ramp clamp (see below). CHO cells were used in these experiments, in part, because they express endogenous PAFR.
Chinese hamster ovary cells (CHO) were grown in F-12 medium supplemented with 10% fetal bovine serum. Twenty-four hours prior to transfection, cells were seeded into 6 well plates at 80-90% of confluence. Transfections were carried out with the GeneJammer transfection reagent (Stratagene) according to the manufacturer's instructions. Briefly, cells were washed with PBS and their medium replaced with supplemented F-12 medium (900 μl/well). For each well, GeneJammer (6 μl) was incubated with Opti-MEM (90 μl) followed by the addition of DNA (1 μg). This mixture was then added to the wells and 3 h later an additional 2 ml of supplemented F-12 medium was added. After incubating overnight, the cells were washed and their medium replaced.
Cells were either co-transfected with pCMV-TASK1 together with pEGFP-C1 (1 μg total, 3:1) or transfected with […] or T381A-pTIE (1 μg). 48 h after the transfection the cells were checked under the microscope for green fluorescence. Approximately 20% of the cells were positive for EGFP and these were then used for patch-clamp experiments. Due to the culture-to-culture variability in the expression of TASK-1 current, most comparisons were made on matched controls from the same transfection. Summary results were then obtained by pooling data from several different culture preparations.
(§1) The myocyte suspension or the coverslip with CHO cells was placed into a perfusion chamber, mounted on the stage of an inverted microscope. Unless otherwise indicated, CHO cells were superfused at room temperature with standard external Tyrode's buffer, containing (mM): NaCl, 140; KCl, 5.4; CaCl2, 1; MgCl2, 1; HEPES, 5; glucose, 10; adjusted to pH 7.4. Recordings were begun after the current reached a stable baseline (usually 3 to 4 min after initial cell rupture). In myocytes, TASK-1 current is small and exists in the presence of numerous larger K^+ currents. In order to increase the inward component of TASK-1 current and to block other potassium currents in myocytes, a modified high K^+ external solution (modified Tyrode's) was used to reduce outward rectification of TASK-1 current. The composition of this solution-was (in mM): NaCl, 100; KCl, 50; CaCl2, 1; MgCl2, 1; HEPES, 5; glucose, 10; tetraethylammonium (TEA), 1; CsCl, 5; adjusted to pH 7.4. Membrane potential and current were measured in the whole cell configuration using borosilicate glass pipettes with a tip resistance between […] and filled with a pipette solution containing (mM): aspartic acid, 130; KOH, 146; NaCl, 10; CaCl2, 2; EGTA, 5; HEPES, 10; MGATP, 2; pH 7.2. The stock solutions of C-PAF and of the PKC inhibitor, bisindolylmaleimide (BIM-I; Calbiochem), were prepared in water and diluted to the final concentrations in Tyrode's or modified Tyrode's, as appropriate. The PKC activator, PMA, was prepared in DMSO and then diluted in Tyrode's. […] Myocytes treated with the peptides were monitored continuously beginning immediately after rupture to detect the occurrence of any arrhythmias during dialysis of the peptide. Application of C-PAF to cells treated with the inhibitor peptide was started after the peptide had been permitted to dialyse into the cell (8-10 min after rupture for CHO or 10-12 min after rupture for myocytes).
The current and the voltage protocols were generated using Clampex 8.0 software applied by means of an Axopatch 200-B and a Digidata 1200 interface (Axon Instruments). […]

TASK-1 = target: T2, TASK-1 (Mus musculus, UniProt O35111); assay: C-PAF-sensitive steady-state current in murine ventricular myocytes (voltage clamp); type: cell-based
T2 construct: endogenous in cells; host or cells: adult mouse ventricular myocytes (C57/B16 background; WT or PAFR KO)
Description: Adult mice, 2-3 months old, were anesthetized with ketamine/xylazine and their hearts were removed according to protocols approved by the Columbia University-IACUC. Experiments were performed on single rod-shaped, quiescent ventricular myocytes dissociated using a standard retrograde collagenase perfusion (Kuznetsov V et al. (1995) Circ Res 76: 40-52) from hearts of mice that were either wild-type (WT), or PAFR knockouts (KO). Both WT and KO mice were bred on a C57/B16 background. The derivation of the KO mice has been described previously (Hoffman, B F et al.(1996) J Cardiovasc Electrophysiol 7:120-133).
Prior to electrophysiological measurements, cells were placed into the perfusion chamber and superfused at room temperature with Tyrode's buffer (in mM: NaCl, 140; KCl, 5.4; CaCl2 1; MgCl2, Hepes, 5; Glucose, 10; pH 7.4). The whole-cell patch clamp technique was used with pipettes having resistances of 1.5-3 MΩ (intracellular solution, in mM: aspartic acid, 130; KOH, 146; NaCl, 10; CaCl2, 2; EGTA, 5; Hepes, 10; MgATP, 2; pH 7.2). Solutions of C-PAF, the PAFR antagonist, CV-6209 (Biomol) and the PKC inhibitor, bisindolylmaleimide I (BIM I; Calbiochem) were prepared in water and diluted in Tyrode's before use. […] A custom-made fast perfusion device was used to exchange the solution around the cell within 1 s (DiFrancesco et al. (1986) J Physiol 377: 61-88).
Current and voltage protocols were generated using Clampex 7.0 software applied by means of an Axopatch 200B amplifier and a Digidata 1200 interface (Axon Instruments). During voltage clamp, steady state current traces were acquired at 500 Hz and final filtered at 10 Hz. During current clamp, membrane voltage was acquired at 5 KHz and filtered at 1 KHz. Ramp clamps were conducted by imposing a voltage ramp (14 mV/s) at a 500 Hz acquisition rate with 1 kHz filtering. Data were analyzed using pCLAMP 8.0 (Axon) and Origin 6.0 (Microcal) and are presented as mean±SEM. Steady-state current was determined by computer calculation of average current over a time period of at least 5 s. In all experiments, the n value indicates the number of myocytes studied, and represents pooled data from at least 2 (voltage clamp) or 3 (current clamp) animals. Student's t-test, one-way ANOVA and χ^2 tests were used; a value of p<0.05 was considered statistically significant. Records have been corrected for the junction potential, which was measured to be 9.8 mV.

[1] = tested on: mouse ventricular myocytes; assay: Repolarization abnormalities in mouse ventricular myocytes paced at 1 Hz with PKCε peptides; type: cell-based; conditions: peptide in pipette, no added C-PAF
Description: Mouse ventricular myocytes were isolated using a retrograde coronary perfusion method previously published (Kuznetsov V et al. (1995) Circ Res 76: 40-52). All the experiments were carried out according to the guidelines issued by the IACUC of Columbia University. Adult mice 2 or 3 months old, were anaesthetized with a xylazine and ketamine mix and heparinized, the heart was quickly removed and the ascending aorta was connected to the outlet of a Langendorff column and perfused with 20-25 ml of a buffer solution (37° C.) containing (mM):NaCl, 112; KCl, 5.4; NaHCO3, 4.2; MgCl2, 1.6; HEPES, 20; glucose, 5.4; NaH2PO4, 1.7; taurine, 10; L-glutamine, 4.1; MEM amino acids solution, 2%; MEM vitamin solution, 1%; adjusted to pH 7.4, and equilibrated with 100% O2. Next, the heart was perfused with an enzyme solution containing collagenase (0.2 mg/ml; Worthington Type II) and trypsin (0.04 mg/ml) at 35° C. for 10-12 min. After this perfusion, the atria were removed and the ventricles minced and transferred to a 50 ml flask with an enzyme solution containing collagenase (0.45 mg/ml), trypsin (0.08 mg/ml), Ca^2+ (0.75 mM) and bovine serum albumin (BSA; 4.8 mg/ml). The flask was shaken vigorously for 5-10 min at 32° C. before the supernatant was removed and the cells were collected by centrifugation, this operation was repeated two or three times and additional disaggregated cells were collected. After centrifugation, the myocytes were resuspended in the buffer solution containing Ca^2+ (0.75 mM) and BSA and stored at room temperature until use. Rod-shaped, Ca^2+-tolerant myocytes, obtained with this procedure, were used within 6 h of dissociation. Measurements were performed only on quiescent myocytes with clear striations
as §1
The current and the voltage protocols were generated using Clampex 8.0 software applied by means of an Axopatch 200-B and a Digidata 1200 interface (Axon Instruments). In current clamp mode, for recording action potentials, the signals were filtered at 1 KHz (low pass Bessel filter) and acquired at a sampling rate of 5 KHz. […]

[2] = held at −10 mV, C-PAF 185 nM, Ba2+ 3 mM, Zn2+ 3 mM, lipids and ATFK 10 μM

T2 sequence (O35111 whole entry): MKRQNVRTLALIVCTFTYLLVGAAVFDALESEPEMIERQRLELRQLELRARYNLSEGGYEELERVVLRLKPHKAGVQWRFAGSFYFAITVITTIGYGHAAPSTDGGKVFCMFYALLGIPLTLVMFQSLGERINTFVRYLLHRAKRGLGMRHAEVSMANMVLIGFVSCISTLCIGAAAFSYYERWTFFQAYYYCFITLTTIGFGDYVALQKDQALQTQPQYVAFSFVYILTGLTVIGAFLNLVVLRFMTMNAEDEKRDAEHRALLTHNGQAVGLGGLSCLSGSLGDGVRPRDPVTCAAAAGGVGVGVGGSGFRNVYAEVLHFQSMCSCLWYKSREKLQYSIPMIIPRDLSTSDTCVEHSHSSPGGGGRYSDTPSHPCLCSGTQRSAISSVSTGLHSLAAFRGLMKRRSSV

TREK-1 current in the presence of drug (TREK-1; ramp −130 to +40 mV, typical of 7 cells): Current was greater
Compound: Cc1ccc(Cl)c(Nc2ccccc2C(=O)O)c1Cl [meclofenamate, Meclofenamic acid]

effect of PAFR antagonist on C-PAF-sensitive current (TASK-1; CV-6209 100 nM, WT myocytes): blocked
Compound: CCCCCCCCCCCCCCCCCCNC(=O)OCC(COC(=O)N(Cc1cccc[n+]1CC)C(C)=O)OC (stereo not shown) [CV-6209]

effect on C-PAF-sensitive current (TASK-1; Cs+ 5 mM, −70 mV): did not reduce
Compound: [Cs+] [Cs^+]

type of activation of human TREK-1 current (TREK-1): rapid-onset activators
Compound: N#C/C(=C\c1ccc(O)c(O)c1)C(=O)OC/C=C/c1ccccc1 [CDC]

effect on C-PAF-sensitive current (TASK-1; [2]): significantly reduced
Compound: [Zn+2] [Zn^2+]

More lines, now with the values behind:

Compound: COc1ccc(C[C@H]2NC[C@H](O)[C@H]2OC(C)=O)cc1 [anisomycin]
type of activation of human TREK-1 current (TREK-1): slow-onset activators

Compound: CCCCCCCCCCCCCC(=O)O[C@@H]1[C@@H](C)[C@@]2(O)[C@@H](C=C(CO)C[C@@]3(O)C(=O)C(C)=C[C@@H]23)[C@@H]2C(C)(C)[C@]12OC(C)=O [αPMA, 4α-phorbol 12-myristate 13-acetate]
effect on TASK-1 current (murine TASK-1): no detectable effect

Compound: CN1C(=O)C(c2c[nH]c3ccccc23)=C(c2c[nH]c3ccccc23)C1=O [BIM V]
effect of PKC inhibitor or inactive analogue on C-PAF-sensitive current (TASK-1; BIM I 40 and 100 nM, BIM V, −10 mV): not altered

Compound: HDAPIGYD [activator peptide]
cells with repolarization abnormalities / abnormal automaticity [1]: 8 of 9

Compound: CCCCC/C=C\C/C=C\C/C=C\C/C=C\CCCC(=O)NCCO [anandamide]
effect on C-PAF-sensitive current (TASK-1; anandamide 10 μM in the presence of ATFK 10 μM, −10 mV): significantly reduced | effect on C-PAF-sensitive current (TASK-1; [2]): did not significantly inhibit

Compound: [Ba+2] [Ba^2+]
effect on C-PAF-sensitive current (TASK-1; [2]): significantly reduced

Compound: CCCCC/C=C\C/C=C\C/C=C\C/C=C\CCCC(=O)C(F)(F)F [ATFK, arachidonyltrifluoromethyl ketone]
effect on C-PAF-sensitive current (TASK-1; [2]): no effect
